Test results taken from EP1156045A1, “AMIDE DERIVATIVES AND DRUG COMPOSITIONS” (Nippon Shinyaku Co., Ltd., priority 1999, dated 2000).
Structures can show the parent of a compound that is named as a salt.

Key:
[1] = tested on: promoter region of the TGF-β1 gene; assay: Inhibitory effect on expression of TGF-β mRNA (TGF-β1 promoter-luciferase reporter, TNF-α stimulation); type: cell-based; settings: mink lung epithelial cells (Mv1Lu); drug 1 µg/ml, TNF-α 10 ng/ml; 24 hours; luciferase activity; read-out: Rate of inhibition (%)
Protocol: The inhibitory effect of the compounds of the present invention on TGF-β production was evaluated by measuring the inhibition of TGF-β mRNA expression according to the method described in J. Biol. Chem., 264, 402-408 (1989). A chimera plasmid was produced in which the promoter region of the TGF-β1 gene was ligated with a luciferase gene. This plasmid was then transfected into mink lung epithelial cells (Mv1Lu) to produce a cell line stably expressing the luciferase gene under the control of the TGF-β1 promoter. The drug (1 µg/ml) and TNF-α (10 ng/ml) were added to Mv1Lu cells, which were then cultured for 24 hours. Then the activity of luciferase in the cells was measured by a chemiluminescence method. The rate of inhibition was calculated from the following formula, the rate of inhibition being defined as 100% when the measured luciferase activity was equal to that in the absence of stimulation with TNF-α: Rate of inhibition = (Le-Lf)/(Le-Ld) × 100 [formula] In this formula, Ld represents the luciferase activity in the absence of TNF-α, Le represents the luciferase activity in the presence of TNF-α, and Lf represents the luciferase activity in the presence of TNF-α and the test drug.

[2] = tested on: TGF-β; assay: Antagonistic action against TGF-β (type I procollagen α2 promoter-luciferase reporter, TGF-β1 stimulation); type: cell-based; settings: mink lung epithelial cells (Mv1Lu); drug 1 µg/ml, TGF-β1 10 ng/ml; 24 hours; luciferase activity; read-out: Rate of inhibition (%)
Protocol: The test was carried out according to the method described in J. Clin. Invest., 86, 1489-1495 (1990) and J. Biol. Chem. 265, 13351-13356 (1990). A chimera plasmid was produced in which the promoter region of type I procollagen α2 gene was ligated with a luciferase gene. This plasmid was then transfected into mink lung epithelial cells (Mv1Lu) to produce a cell line stably expressing the luciferase gene under the control of the […]. The drug (1 µg/ml) and TGF-β1 (10 ng/ml) were added to Mv1Lu cells, which were then cultured for 24 hours. Then, the activity of luciferase in the cells was measured by a chemiluminescence method. The rate of inhibition was calculated from the following formula, the rate of inhibition being defined as 100% when the measured luciferase activity was equal to that in the absence of stimulation with TGF-β1: Rate of inhibition = (Lb-Lc)/(Lb-La) × 100 [formula] In this formula, La represents the luciferase activity in the absence of stimulation with TGF-β1, Lb represents the luciferase activity in the presence of stimulation with TGF-β1, and Lc represents the luciferase activity in the presence of TGF-β1 and the test drug.

[3] = Acute toxicity; type: in vivo; settings: mice; orally, 300 mg/kg suspension; observed for a week after administration
Protocol: Each of the compounds in Examples 1, 5, 6, 33, 34, 39, and 48 was administered.

[4] = tested on: TGF-β1; assay: Inhibition of TGF-β production (TGF-β1 released into the medium, ELISA); type: cell-based; settings: human mesangial cells immortalized with SV40, cultured 4 days, TGF-β1 released during the last 2 days; for inhibition at 1 µg/mL: Mesangial cell, read-out: Rate of inhibition (%)
Protocol: The test was carried out according to the method described in Jpn. J. Pharmacol, 60, 91-96 (1992). That is, human mesangial cells immortalized with SV40 were cultured in 24-well plates, and then the medium was changed to a serum-free medium. The test drugs were added at concentrations of 1 µg/ml or 10 µg/ml, and the cells were cultured for 4 days. The amounts of TGF-β1 (a major type of-TGF-β) released into the medium during the last 2 days were quantified by ELISA kits. The rate of inhibition (%) was calculated from the following formula: Rate of inhibition = (Ta-Tb)/Ta × 100 [formula] In this formula, Ta represents the amount of TGF-β1 released into the medium in the absence of the test drug, and Tb represents the amount of TGF-β1 released into the medium in the presence of the test drug.

| SMILES | inhibition at 1 µg/mL [1] [%] | inhibition at 1 µg/mL [2] [%] | deaths [3] | inhibition at 1 µg/mL ([4]; concentration 1 µg/ml) [%] | Rate of inhibition (%) ([4]; concentration 1 µg/ml) | Rate of inhibition (%) ([4]; concentration 10 µg/ml) |
| --- | --- | --- | --- | --- | --- | --- |
| Cn1c(-c2ccccc2)c(C(=O)N2CCCN(c3cccnc3)CC2)c2ccccc21 [Example 120, 1-(1-Methyl-2-phenylindol-3-ylcarbonyl)-4-(3-pyridyl)homopiperazine hydrochloride] | 27.7 | 44.9 | – | – | – | – |
| Cc1ccc2c(c1)c(C(=O)N1CCCN(c3ccccn3)CC1)c(-c1ccccc1)n2C [Example 119, 1-(1,5-Dimethyl-2-phenylindol-3-ylcarbonyl)-4-(2-pyridyl)-homopiperazine hydrochloride] | 39.2 | 53.8 | – | – | – | – |
| Cl.Cn1c(-c2ccccc2)c(C(=O)N2CCN(c3ccc([N+](=O)[O-])cn3)CC2)c2ccccc21 [Example 48, 1-(1-Methyl-2-phenylindol-3-ylcarbonyl)-4-(5-nitro-2-pyridyl)-piperazine hydrochloride] | 74.7 | 63.7 | No deaths were observed | – | – | – |
| Cc1ccc2c(c1)c(C(=O)N1CCCN(c3ccc(NS(C)(=O)=O)cn3)CC1)c(-c1ccccc1)n2C [Example 174, 1-(1,5-Dimethyl-2-phenylindol-3-ylcarbonyl)-4-(5-methane-sulfonylamino-2-pyridyl)homopiperazine] | 24.8 | 49.8 | – | – | – | – |
| Cc1ccc2c(c1)c(C(=O)N1CCCN(c3cccnc3)CC1)c(-c1ccccc1)n2C [Example 121, 1-(1,5-Dimethyl-2-phenylindol-3-ylcarbonyl)-4-(3-pyridyl)-homopiperazine hydrochloride] | 40.6 | 59 | – | – | – | – |
| Cn1c(-c2ccccc2)c(C(=O)N2CCCN(c3ccccn3)CC2)c2ccccc21 [Example 118, 1-(1-Methyl-2-phenylindol-3-ylcarbonyl)-4-(2-pyridyl)-homopiperazine dihydrochloride] | 48.8 | 51.8 | – | – | – | – |
| Cl.Cn1c(-c2ccccc2)c(C(=O)N2CCN(c3ccccn3)CC2)c2ccccc21 [Example 6, 1-(1-Methyl-2-phenylindol-3-ylcarbonyl)-4-(2-pyridyl)piperazine hydrochloride] | 50.1 | 44.6 | No deaths were observed | 30.2 | – | – |
| COC(=O)c1ccc(N2CCCN(C(=O)c3c(-c4ccccc4)n(C)c4ccc(C)cc34)CC2)nc1 [Example 178, 1-(1,5-Dimethyl-2-phenylindol-3-ylcarbonyl)-4-(5-carbomethoxy-2-pyridyl)-homopiperazine] | 43 | 102 | – | – | – | – |
| Cc1ccc2c(c1)c(C(=O)N1CCCN(c3ccc([N+](=O)[O-])cn3)CC1)c(-c1ccccc1)n2C [Example 129, 1-(1,5-Dimethyl-2-phenylindol-3-ylcarbonyl)-4-(5-nitro-2 pyridyl)homopiperazine] | – | 64.3 | – | – | – | – |
| Cc1ccc2c(c1)c(C(=O)N[C@H]1C[C@H]3CC[C@@H](C1)N3C)c(-c1ccccc1)n2C.Cl [Example 117, N-(endo-8-Methyl-8-azabicyclo[3.2.1]octa-3-yl)-1,5-dimethyl-2-phenylindole-3-carboxamide hydrochloride] | – | – | – | – | 47.4 | – |
| COc1ccc2c(c1)c(C(=O)NC1CC3CCC(C1)N3C)c(-c1ccccc1)n2C.Cl (stereo not drawn) [Example 61, N-(endo-8-Methyl-8-azabicyclo[3.2.1]octa-3-yl)-5-methoxy-1-methyl-2-phenylindole-3-carboxamide hydrochloride] | – | – | – | – | 69.7 | – |
| Cc1ccc2c(c1)c(C(=O)N1CCN(c3ccncc3)CC1)c(-c1ccccc1)n2C.Cl [Example 34, 1-(1,5-Dimethyl-2-phenylindol-3-ylcarbonyl)-4-(4-pyridyl)piperazine hydrochloride] | – | 33.8 | No deaths were observed | – | – | – |
| Cc1ccc(=O)n(-c2ccccc2)c1 [Perfenidone, reference compound] | – | – | – | – | – | 1.7 |
| Cn1c(-c2ccccc2)c(C(=O)N2CC[N+]([O-])(c3ccccn3)CC2)c2ccccc21 [Example 5, 1-(1-Methyl-2-phenylindol-3-ylcarbonyl)-4-(2-pyridyl)piperazine-4-oxide] | 28.2 | 27.4 | No deaths were observed | 20.9 | – | – |
| CCN(CC)S(=O)(=O)c1ccc(N2CCCN(C(=O)c3c(-c4ccccc4)n(C)c4ccc(C)cc34)CC2)nc1 [Example 183, 1-(1,5-Dimethyl-2-phenylindol-3-ylcarbonyl)-4-(5-diethylamino-sulfonyl-2-pyridyl)homopiperazine] | 46.9 | 79.3 | – | – | – | – |
| CC(=O)Nc1ccc(N2CCCN(C(=O)c3c(-c4ccccc4)n(C)c4ccc(C)cc34)CC2)nc1 [Example 180, 1-(1,5-Dimethyl-2-phenylindol-3-ylcarbonyl)-4-(5-acetylamino-2-pyridyl)homopiperazine] | 25.5 | 48.3 | – | – | – | – |
| Cc1ccc2c(c1)c(C(=O)N1CCN(c3ccc([N+](=O)[O-])cn3)CC1)c(-c1ccccc1)n2C [Example 58, 1-(1,5-Dimethyl-2-phenylindol-3-ylcarbonyl)-4-(5-nitro-2-pyridyl)-piperazine hydrochloride] | 30.2 | 34.8 | – | 27.6 | – | – |
| Cc1cc2c(C(=O)N3CCN(c4ccncc4)CC3)c(-c3ccccc3)n(C)c2cc1C.Cl [Example 39, 1-(1,5,6-Trimethyl-2-phenylindol-3-ylcarbonyl)-4-(4-pyridyl)-piperazine hydrochloride] | 27.4 | 52.4 | No deaths were observed | – | – | – |
| Cc1ccc2c(C(=O)N[C@@H]3C[C@H]4CC[C@@H](C3)N4C)c(-c3ccccc3)n(C)c2c1.Cl [Example 63, N-(endo-8-Methyl-8-azabicyclo[3.2.1]octa-3-yl)-1,6-dimethyl-2-phenylindole-3-carboxamide hydrochloride] | – | – | – | – | 40.7 | – |
| Cc1ccc2c(c1)c(C(=O)N1CCN(c3cccnc3)CC1)c(-c1ccccc1)n2C.Cl.Cl [Example 33, 1-(1,5-Dimethyl-2-phenylindol-3-ylcarbonyl)-4-(3-pyridyl)piperazine dihydrochloride] | 43.2 | 50.6 | No deaths were observed | – | – | – |
| Cc1ccc2c(c1)c(C(=O)N1CCN(c3ccccn3)CC1)c(-c1ccccc1)n2C.Cl [Example 1, 1-(1,5-Dimethyl-2-phenylindol-3-ylcarbonyl)-4-(2-pyridyl)piperazine hydrochloride] | – | 31.2 | No deaths were observed | – | – | – |
